Data taken from US20180311342A1, “IMMUNOSTIMULATING AGENT” (AJINOMOTO CO., INC., priority 2017, published 2018).

Assays:
Type in all cases: in vivo, BALB/c mice
[1] = system: anti-OVA-specific IgG1 subclass antibody; assay: Adjuvant activity test: anti-OVA-specific IgG1 subclass antibody in serum of OVA-immunized mice (ELISA); conditions: after primary immunization, serum 2 weeks later; OVA 5 μg + compound 0.256 μmol in 5% αCD-added saline (Addavax mixed with saline at 1:1), dorsal-subcutaneous; compared to OVA single administration group
[2] = system: anti-OVA-specific IgG2a subclass antibody; assay: Adjuvant activity test: anti-OVA-specific IgG2a subclass antibody in serum of OVA-immunized mice (ELISA); conditions: after primary immunization, serum 2 weeks later; OVA 5 μg + compound 0.256 μmol in 5% αCD-added saline (Addavax mixed with saline at 1:1), dorsal-subcutaneous; compared to OVA single administration group
[3] = system: anti-OVA-specific IgG1 and IgG2a subclass antibody production; assay: Evaluation test of adjuvant activity (overall conclusion from anti-OVA IgG1 and IgG2a production); conditions: compound 0.256 μmol in 5% αCD-added saline with OVA 5 μg, dorsal-subcutaneous
Procedure: 8-Week-old female BALB/c mice were divided into groups (N=6), and each group was primarily immunized by dorsal-subcutaneous administration of (1) ovalbumin (OVA) (5 μg) dissolved in saline as an antigen (OVA single administration group), (2) OVA 5 μg and Addavax™ (mixed with saline at 1:1) dissolved in saline (Addavax™ administration group) as positive control adjuvant, (3) OVA 5 μg and SZ137 0.256 μmol dissolved or dispersed in 5% α-cyclodextrin (hereinafter to be simply referred to as αCD)-added saline (SZ137 administration group), (4) OVA (5 μg) and SZ138 (0.256 μmol) dissolved or dispersed in 5% αCD-added saline (SZ138 administration group), (5) OVA (5 μg) and SZ142 (0.256 μmol) dissolved or dispersed in 5% αCD-added saline (SZ142 administration group), (6) OVA (5 μg) and SZ144 (0.256 μmol) dissolved or dispersed in 5% αCD-added saline (SZ144 administration group), (7) OVA (5 μg) and SZ145 (0.256 μmol) dissolved or dispersed in 5% αCD-added saline (SZ145 administration group), (8) OVA (5 μg) and SZ146 (0.256 μmol) dissolved or dispersed in 5% αCD-added saline (SZ146 administration group), (9) OVA (5 μg) and SZ147 (0.256 μmol) dissolved or dispersed in 5% αCD-added saline (SZ147 administration group), (10) OVA (5 μg) and SZ148 (0.256 μmol) dissolved or dispersed in 5% αCD-added saline (SZ148 administration group), each per mouse. Two week later, the secondary immunization was carried out by dorsal-subcutaneous administration of solutions or dispersions similar to those of the above-mentioned (1)-(10) again. […]
To a 96 well plate was added 5 μg/ml OVA at 100 µl/well, and the mixture was incubated at 4° C. overnight. After incubation, the mixture was washed three times with 200 μl of PBS-T (PBS (phosphate buffered saline)+0.05% (v/v) Tween 20) per well, and blocked with 100 μl of 5% FCS (fetal calf serum)/PBS solution per well at room temperature for 1-2 hr. Thereafter, the mixture was washed three times with PBS-T (200 μl/well), a diluted serum sample (100 l/well) or the same amount of 5% FCS/PBS solution as a control was added, and the mixture was incubated at 37° C. for 1 hr. To calculate concentration of the antibody, the standard of an anti-OVA-specific IgG1 subclass antibody diluted with 2% FCS/PBS solution was added at 100 ng/ml, 50 ng/ml, 25 ng/ml, 12.5 ng/ml, 6.25 ng/ml, 3.125 ng/ml, 1.56 ng/ml, 0.781 ng/ml, 0.391 ng/ml, 0.195 ng/ml, 0.098 ng/ml, 0 ng/ml, per 1 well. When an anti-OVA-specific IgG2a subclass antibody was measured, the standard of an anti-OVA-specific IgG2a subclass antibody was added at 50 ng/ml, 25 ng/ml, 12.5 ng/ml, 6.25 ng/ml, 3.125 ng/ml, 1.56 ng/ml, 0.781 ng/ml, 0.391 ng/ml, 0.195 ng/ml, 0.098 ng/ml, 0.049 ng/ml, 0 ng/ml, per 1 well. Thereafter, similar to the samples, the mixture was washed five times with PBS-T (200 μl/well), a diluted biotinylated anti-mouse IgG1 antibody and IgG2a antibody were added (100 μl/well), and the mixture was incubated at 37° C. for 45 min. Thereafter, the mixture was washed five times with PBS-T (200 μl/well), a diluted anti-biotin-HRP antibody was added (100 μl/well), and the mixture was incubated at 37° C. for another 30 min. Thereafter, the mixture was washed five times with PBS-T (200 μl/well), TMB substrate solution was added (100 μl/well), and the mixture was incubated at room temperature for 10-15 min. Thereafter, a reaction quenching liquid (2N sulfuric acid solution) was added (50 l/well) to discontinue a color developing reaction, and the absorbance (OD Value=450 nm) was measured by a microplate reader. A standard curve was drawn from the measured OD values, and the concentration was calculated. […]

[4] = conclusion from IgG1/IgG2a after primary immunization
[5] = conclusion from IgG1/IgG2a after secondary immunization

Compound | anti-OVA-specific IgG1 subclass antibody production [1] | anti-OVA-specific IgG2a subclass antibody production [2] | adjuvant activity [3, 4] | adjuvant activity [3, 5]
CCCCCCCCCCCCCCCC(=O)N[C@@H](CC(C)C)C(=O)NCCCCCCCC [SZ199, N-[(1S)-3-methyl-1-(octylcarbamoyl)butyl]hexadecanamide] | significant enhancement | significant enhancement | have an adjuvant activity | have an adjuvant activity
CCCCCCCCCCCCCCCCCC(=O)N[C@@H](CCCCNC(=N)N)C(=O)NCCCCCCCCCCCC.Cl [SZ205, N-[(1S)-1-(dodecylcarbamoyl)-5-guanidino-pentyl]octadecanamide hydrochloride] | significant enhancement | significant enhancement | have an adjuvant activity | have an adjuvant activity
CCCCCCCCCCCCCCCCCCCC(=O)N[C@@H](CCCNC(=N)N)C(=O)NCCCCCCCCCCCC.Cl [SZ180, N-[(1S)-1-(dodecylcarbamoyl)-4-guanidino-butyl]icosanamide hydrochloride] | significant enhancement | significant enhancement | have an adjuvant activity | have an adjuvant activity
CCCCCCCCCCCCCCCCCC(=O)N[C@@H](CCCCN)C(=O)NCCCCCCCC.Cl [SZ184, N-[(1S)-5-amino-1-(octylcarbamoyl)pentyl]octadecanamide hydrochloride] | a tendency toward increase was found | a tendency toward increase was found | have an adjuvant activity | have an adjuvant activity
CCCCCCCCCCCCCCCCCC(=O)N[C@H](CCCNC(=N)N)C(=O)NCCCCCCCCCCCC.Cl [SZ191, N-[(1R)-1-(dodecylcarbamoyl)-4-guanidino-butyl]octadecanamide hydrochloride] | significant enhancement | significant enhancement | have an adjuvant activity | have an adjuvant activity
CCCCCCCCCCCCCCCCNC(=O)N[C@@H](CCCNC(=N)N)C(=O)NCCCCCCCC.Cl [SZ210, (2S)-5-guanidino-2-(hexadecylcarbamoylamino)-N-octyl-pentanamide hydrochloride] | significant enhancement | significant enhancement | have an adjuvant activity | have an adjuvant activity
CCCCCCCCCCCCCCCCCC(=O)NCC(C)(C)C(=O)NCCCCCCCCCCCC [SZ204, N-[3-(dodecylamino)-2,2-dimethyl-3-oxo-propyl]octadecanamide] | tended to increase | tended to increase | have an adjuvant activity | have an adjuvant activity
CCCCCCCCCCCCCCCC(=O)N[C@H](CCCCN)C(=O)NCCCCCCCCCCCC.Cl [SZ194, N-[(1R)-5-amino-1-(dodecylcarbamoyl)pentyl]hexadecanamide hydrochloride] | tended to increase | Significant enhancement | have an adjuvant activity | have an adjuvant activity
CCCCCCCCCCCCCCCCCC(=O)N[C@@H](CC(C)C)C(=O)NCCCCCCCC [SZ196, N-[(1S)-3-methyl-1-(octylcarbamoyl)butyl]octadecanamide] | tended to increase | tended to increase | have an adjuvant activity | have an adjuvant activity
CCCCCCCCCCCCNC(=O)[C@H](CCCNC(=N)N)NC(=O)OCCCCCCCCCCCC.Cl [SZ187, dodecyl N-[(1S)-1-(dodecylcarbamoyl)-4-guanidino-butyl]carbamate hydrochloride] | significant enhancement | significant enhancement | have an adjuvant activity | have an adjuvant activity
CCCCCCCCCCCCCCCCNC(=O)NCCCCNC(=N)N.Cl [SZ190, 1-(4-guanidinobutyl)-3-hexadecyl-urea hydrochloride] | a tendency toward increase was found | a tendency toward increase was found | have an adjuvant activity | have an adjuvant activity
CCCCCCCCCCCCCCCCNC(=O)N[C@@H](CCCCN)C(=O)NCCCCCCCCCCCC.Cl [SZ214, (2S)-6-amino-N-dodecyl-2-(hexadecylcarbamoylamino)hexanamide hydrochloride] | significant enhancement | significant enhancement | have an adjuvant activity | have an adjuvant activity
CCCCCCCCCCCCCCCC(=O)N[C@@H](CCCNC(=N)N)C(=O)NCCCCCCCC.Cl [SZ181, N-[(1S)-4-guanidino-1-(octylcarbamoyl)butyl]hexadecanamide hydrochloride] | a tendency toward increase was found | a tendency toward increase was found | have an adjuvant activity | have an adjuvant activity
CCCCCCCCCCCCCCCCCC(=O)N[C@@H](CC(C)C)C(=O)NCCCCCCCCCCCC [SZ195, N-[(1S)-1-(dodecylcarbamoyl)-3-methyl-butyl]octadecanamide] | tended to increase | tended to increase | have an adjuvant activity | have an adjuvant activity
CCCCCCCCCCCCCCCCCC(=O)N[C@@H](CCCNC(=N)N)C(=O)NCCCCCCCC.Cl [SZ182, N-[(1S)-4-guanidino-1-(octylcarbamoyl)butyl]octadecanamide hydrochloride] | a tendency toward increase was found | a tendency toward increase was found | have an adjuvant activity | have an adjuvant activity
